Results as given in ChEMBL document CHEMBL1201862, “PubChem BioAssay data set” (2004).
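Cultured in 96-well plates, cells were exposed to test compound for 48 hours across five concentrations. Here, GI50 denotes the concentration required for 50% inhibition of growth.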 Calls of active or inactive are those of the source. Rule as the data show it: active = GI50 up to about 1.1 µM and inactive = higher.

Legend:
Assay in all cases: inhibition of tumour cell growth, NCI panel, 48 h
[1] = system: SNB-75
[2] = system: HCC 2998
[3] = system: NCI-H522
[4] = system: SK-MEL-2
[5] = system: KM12
[6] = system: SK-MEL-5
[7] = system: HCT-116
[8] = system: UO-31
[9] = system: COLO 205
[10] = system: OVCAR-3
[11] = system: 786-0
[12] = system: MDA-MB-435
[13] = system: IGROV-1
[14] = system: NCI-H226
[15] = system: T47D
[16] = system: MCF7
[17] = system: UACC-257
[18] = system: HOP-62
[19] = system: Malme-3M
[20] = system: U-251

SMILES | GI50 [1] | GI50 [2] | GI50 [3] | GI50 [4] | GI50 [5] | GI50 [6] | GI50 [7] | GI50 [8] | GI50 [9] | GI50 [10] | GI50 [11] | GI50 [12] | GI50 [13] | GI50 [14] | GI50 [15] | GI50 [16] | GI50 [17] | GI50 [18] | GI50 [19] | GI50 [20]
COc1ccc(-c2c3c(n(C4OC(CO)C(O)C(O)C4O)c(=S)c2C#N)CC(C)(C)CC3=O)cc1 (stereo not given) | 96.6 µM (inactive) | > 100 µM (inactive) | > 100 µM (inactive) | > 100 µM (inactive) | > 100 µM (inactive) | > 100 µM (inactive) | 73.3 µM (inactive) | > 100 µM (inactive) | > 100 µM (inactive) | > 100 µM (inactive) | > 100 µM (inactive) | > 100 µM (inactive) | > 100 µM (inactive) | 96.6 µM (inactive) | 13.8 µM (inactive) | > 100 µM (inactive) | > 100 µM (inactive) | > 100 µM (inactive) | > 100 µM (inactive) | > 100 µM (inactive)
Cc1cccc(/N=N/C(=N\NC(=O)c2cc(Cl)ccc2O)c2ccc(N(CCC#N)CCC#N)cc2C)c1 | 37.9 µM (inactive) | 28.5 µM (inactive) | 20.8 µM (inactive) | 29 µM (inactive) | 27.2 µM (inactive) | 34 µM (inactive) | 33 µM (inactive) | 21.9 µM (inactive) | 13.6 µM (inactive) | 18.5 µM (inactive) | 38.5 µM (inactive) | 47.1 µM (inactive) | 14.6 µM (inactive) | 36 µM (inactive) | 22.9 µM (inactive) | 32.2 µM (inactive) | 30.7 µM (inactive) | 28.2 µM (inactive) | 28.1 µM (inactive) | 36.1 µM (inactive)
C=C1C(=O)O[C@@H]2C[C@]3(C)CC[C@]4(C)[C@H](CC[C@@H]5[C@@]6(C)CCC(=O)C(C)(C)[C@@H]6CC[C@]54C)[C@H]3[C@H]12 [OCHRACEOLIDE A] | 20.7 µM (inactive) | 19.2 µM (inactive) | 7.33 µM (inactive) | 22.4 µM (inactive) | 19.2 µM (inactive) | 12.5 µM (inactive) | 13.6 µM (inactive) | 14.8 µM (inactive) | 7.19 µM (inactive) | 17.3 µM (inactive) | 13.7 µM (inactive) | 11.2 µM (inactive) | 18.7 µM (inactive) | 20 µM (inactive) | 10.6 µM (inactive) | 4.81 µM (inactive) | 14.6 µM (inactive) | 23.5 µM (inactive) | 15.8 µM (inactive) | 19 µM (inactive)
COc1cc(CSc2ccc(O)cc2)cc(O)c1O | 32.1 µM (inactive) | 29.2 µM (inactive) | 16.1 µM (inactive) | 24.5 µM (inactive) | 25.9 µM (inactive) | > 10 µM (inactive) | 22.1 µM (inactive) | 27.2 µM (inactive) | 23.3 µM (inactive) | 26.2 µM (inactive) | 36.2 µM (inactive) | 17.2 µM (inactive) | 35.3 µM (inactive) | 23.4 µM (inactive) | 28.8 µM (inactive) | 17.6 µM (inactive) | 34 µM (inactive) | 44.7 µM (inactive) | 37.6 µM (inactive) | 28.8 µM (inactive)
O=C1C(=O)N(c2cccc(C(F)(F)F)c2)C(=O)C(=O)C1c1nc2ccccc2s1 | > 49.5 µM (inactive) | 99.5 µM (inactive) | > 100 µM (inactive) | > 100 µM (inactive) | > 64 µM (inactive) | > 100 µM (inactive) | 43.8 µM (inactive) | 79.8 µM (inactive) | > 100 µM (inactive) | 48.6 µM (inactive) | 72.3 µM (inactive) | > 100 µM (inactive) | > 81.7 µM (inactive) | > 81.8 µM (inactive) | > 100 µM (inactive) | 45.1 µM (inactive) | > 92 µM (inactive) | 64.9 µM (inactive) | 68.1 µM (inactive) | 62.4 µM (inactive)
C=CCc1c(Cl)nc(Cl)nc1Cl | 1.08 µM (active) | 0.832 µM (active) | < 0.0191 µM (active) | 0.478 µM (active) | 0.439 µM (active) | 0.0818 µM (active) | 0.352 µM (active) | 0.0748 µM (active) | 0.195 µM (active) | 0.161 µM (active) | 0.0918 µM (active) | 0.321 µM (active) | 0.323 µM (active) | 0.0421 µM (active) | 0.313 µM (active) | 0.185 µM (active) | 0.641 µM (active) | 0.515 µM (active) | 0.159 µM (active) | 0.578 µM (active)
COc1ccc2nc(N/N=C/C(C)=N/Nc3cc(C)c4cc(OC)ccc4n3)cc(C)c2c1 | 21.9 µM (inactive) | 20.1 µM (inactive) | 20.3 µM (inactive) | > 68.1 µM (inactive) | 18.7 µM (inactive) | 26.5 µM (inactive) | 14.2 µM (inactive) | > 80.4 µM (inactive) | 23.2 µM (inactive) | 26.5 µM (inactive) | 14 µM (inactive) | 29 µM (inactive) | 21 µM (inactive) | 45.6 µM (inactive) | 29.8 µM (inactive) | 14.3 µM (inactive) | 58.5 µM (inactive) | 28.6 µM (inactive) | 50.9 µM (inactive) | 16.2 µM (inactive)
COC(=O)c1cc2c(cc1CC1Cc3cc4c(cc3C1)CCC4)CCC2 | 40.1 µM (inactive) | 22.6 µM (inactive) | 25.7 µM (inactive) | 24.3 µM (inactive) | 68.7 µM (inactive) | 52.6 µM (inactive) | 35.6 µM (inactive) | 32 µM (inactive) | 40.5 µM (inactive) | 38.6 µM (inactive) | > 100 µM (inactive) | 42.6 µM (inactive) | 53 µM (inactive) | > 100 µM (inactive) | 37.5 µM (inactive) | 25.4 µM (inactive) | 25.8 µM (inactive) | > 100 µM (inactive) | 86.5 µM (inactive) | 34.9 µM (inactive)
Cc1ccc(/N=C2/SC(c3ccc(C)cc3)(c3ccc(C)cc3)c3ccccc32)cc1 | > 100 µM (inactive) | > 100 µM (inactive) | > 100 µM (inactive) | > 100 µM (inactive) | > 100 µM (inactive) | > 100 µM (inactive) | > 100 µM (inactive) | > 100 µM (inactive) | > 100 µM (inactive) | > 100 µM (inactive) | > 100 µM (inactive) | > 100 µM (inactive) | > 100 µM (inactive) | > 100 µM (inactive) | > 100 µM (inactive) | > 100 µM (inactive) | > 100 µM (inactive) | > 100 µM (inactive) | > 100 µM (inactive) | > 100 µM (inactive)
O=C(Nc1nc(C23CC4CC(CC(C4)C2)C3)cs1)c1cc2cc(Br)cc(Br)c2oc1=O | 26.9 µM (inactive) | 75.7 µM (inactive) | > 100 µM (inactive) | 51.5 µM (inactive) | > 100 µM (inactive) | > 100 µM (inactive) | 59 µM (inactive) | > 100 µM (inactive) | > 100 µM (inactive) | 61.4 µM (inactive) | 32.9 µM (inactive) | 67.5 µM (inactive) | > 100 µM (inactive) | 33.2 µM (inactive) | > 100 µM (inactive) | > 100 µM (inactive) | > 100 µM (inactive) | 70.8 µM (inactive) | > 100 µM (inactive) | 20.3 µM (inactive)
CCCCCc1c(CCCC)c(=O)[nH]c2cc(CNCC(OC)OC)ccc12 | 15.6 µM (inactive) | 3.24 µM (inactive) | 17.6 µM (inactive) | 11.7 µM (inactive) | 11.7 µM (inactive) | 8.77 µM (inactive) | 7.11 µM (inactive) | 13.2 µM (inactive) | 2.41 µM (inactive) | 17.3 µM (inactive) | 4.47 µM (inactive) | 11.4 µM (inactive) | 14.9 µM (inactive) | 20.6 µM (inactive) | 15.5 µM (inactive) | 12.9 µM (inactive) | 4.92 µM (inactive) | 18.2 µM (inactive) | 2.83 µM (inactive) | 10.8 µM (inactive)
O=C1NN(c2ccccc2)C(=O)C2C3c4ccccc4C(c4ccccc43)C12 (stereo not given) | 26.1 µM (inactive) | 6.64 µM (inactive) | 49.1 µM (inactive) | > 100 µM (inactive) | > 100 µM (inactive) | > 100 µM (inactive) | 75 µM (inactive) | > 100 µM (inactive) | 78.2 µM (inactive) | > 100 µM (inactive) | > 100 µM (inactive) | > 100 µM (inactive) | > 100 µM (inactive) | > 100 µM (inactive) | 44.4 µM (inactive) | 44.2 µM (inactive) | 27.6 µM (inactive) | 56.8 µM (inactive) | 85.1 µM (inactive) | > 100 µM (inactive)
CSc1nc2c(c(N(C)C)n1)C(O)n1c(nc3ccccc31)S2 (stereo not given) | 17.1 µM (inactive) | > 100 µM (inactive) | 12 µM (inactive) | > 100 µM (inactive) | > 100 µM (inactive) | 56.2 µM (inactive) | 23 µM (inactive) | > 50.2 µM (inactive) | > 100 µM (inactive) | 29.2 µM (inactive) | 26.8 µM (inactive) | > 100 µM (inactive) | 30.2 µM (inactive) | > 100 µM (inactive) | 38.1 µM (inactive) | 47 µM (inactive) | > 100 µM (inactive) | 23 µM (inactive) | 28.6 µM (inactive) | > 22.7 µM (inactive)
CCNc1nc(N)c(C(=O)c2cccs2)s1 | 10.4 µM (inactive) | 34.3 µM (inactive) | 26.3 µM (inactive) | 16.5 µM (inactive) | 11.8 µM (inactive) | 18.1 µM (inactive) | 9.86 µM (inactive) | 38 µM (inactive) | 7.05 µM (inactive) | 22 µM (inactive) | 26.6 µM (inactive) | 20.9 µM (inactive) | 10.6 µM (inactive) | 24.2 µM (inactive) | 19.1 µM (inactive) | 22 µM (inactive) | 46.9 µM (inactive) | 30.9 µM (inactive) | 43.3 µM (inactive) | 22.5 µM (inactive)
